Experimental data taken from PMC9788509, “Arginine Homopeptide of 11 Residues as a Model of Cell-Penetrating Peptides in the Interaction with Bacterial Membranes” (Membranes, 2022).

Tested on: blood samples obtained from a healthy individual
Type: cell-based
Experimental: The hemolytic activity of the peptides was obtained, according to a previously described procedure. Briefly, blood samples obtained from a healthy individual were centrifuged at 2000 g for 10 min at 4 °C and then washed with PBS 1X three times. The supernatant was diluted with PBS 1X until reaching a concentration of 6 × 10^8 cells/mL. Assays were performed in duplicate with the peptides at concentrations of 5 and 50 µM, including AMP from Bothrops asper. Triton X-100 (Sigma Aldrich) at 0.5% was used as positive control and PBS 1X as negative control. The assay is performed by mixing 65 µL of the cell suspension with 65 µL of each peptide at the indicated concentrations, and 65 µL of each control, incubating at 37 °C for 1 h. The samples are centrifuged at 3000 g for 5 min; 80 µL of supernatant is taken and placed in a 96-well plate together with 80 µL of milliQ water to finally measure its absorbance at 540 nm.
Hemolysis is calculated according to Equation (1). (1) %Hemolysis=[…]

triton X-100
Hemolytic activity: hemolysis was only observed
